The values below come from patent US9663496B2, “AMPK-activating heterocyclic compounds and methods for using the same” (Rigel Pharmaceuticals, Inc., priority 2010, dated 2017).

For orientation: EC50 means the concentration that produces a half-maximal response. High values mean a need for much substance, low ones an effect from little substance.

The target in the assay is AMPK. Nature of the assay: AMPK activation, enzyme-linked immunosorbent assay. The class given is biochemical. The settings on record: EC50 for AMPK activation, ELISA. As to the method: Compounds were assayed for their ability to activate AMPK using an enzyme-linked immunosorbent assay. Reagents and procedures for measuring AMPK activation are well known and kits for AMPK activation assays are commercially available.
Take `CS(=O)(=O)c1ccc(C(=O)C2CCN(C(=O)c3ccc(C(=O)Nc4ccc(Oc5ccc(F)cc5)nc4)cn3)CC2)cc1` [Compound 224, N-(6-(4-fluorophenoxy)pyridin-3-yl)-6-(4-(4-(methylsulfonyl)benzoyl)piperidine-1-carbonyl)nicotinamide]: the EC50 was below 500 nM.
Molecule `N#Cc1ccc(CN2CCC(NC(=O)c3ccc(C(=O)N4CCN(c5ccc(F)cc5)CC4)cn3)CC2)cc1` [Compound 341, N-(1-(4-cyanobenzyl)piperidin-4-yl)-5-(4-(4-fluorophenyl)piperazine-1-carbonyl)picolinamide] yielded an EC50 below 500 nM.
In the case of `N#Cc1ccc(O[C@H]2CC[C@@H](NC(=O)c3ccc(C(=O)N4CCC(Oc5cccc(NC(=O)C6CC6)c5)CC4)nc3)CC2)cc1` [Compound 434, N-((cis)-4-(4-cyanophenoxy)cyclohexyl)-6-(4-(3-(cyclopropanecarboxamido)phenoxy)piperidine-1-carbonyl)nicotinamide] it was below 500 nM; in that of `CC(=O)Nc1cccc(OC2CCN(C(=O)c3ccc(C(=O)Nc4ccc(Oc5ccc(F)cc5)nc4)cn3)CC2)c1` [Compound 414, 6-(4-(3-acetamidophenoxy)piperidine-1-carbonyl)-N-(6-(4-fluorophenoxy)pyridin-3-yl)nicotinamide], 1000 to 5000 nM; in that of `COc1ccc(C(=O)C2CCN(C(=O)c3ccc(C(=O)NC4CCN(Cc5cccc(OC)c5)CC4)cn3)CC2)cc1` [Compound 425, 6-(4-(4-methoxybenzoyl)piperidine-1-carbonyl)-N-(1-(3-methoxybenzyl)piperidin-4-yl)nicotinamide], below 500 nM.
In the case of `COc1ccc(S(=O)(=O)N2CCN(C(=O)c3ccc(C(=O)NC4CCN(Cc5ccc(C#N)cc5)CC4)nc3)CC2)cc1` [Compound 79, N-(1-(4-cyanobenzyl)piperidin-4-yl)-5-(4-(4-methoxyphenylsulfonyl)piperazine-1-carbonyl)picolinamide] it was 500 to 1000 nM; in that of `CS(=O)(=O)c1ccc(OC2CCN(C(=O)c3ccc(C(=O)NC4CCN(Cc5ccc(C#N)cc5)CC4)cn3)CC2)cc1` [Compound 397, N-(1-(4-cyanobenzyl)piperidin-4-yl)-6-(4-(4-(methylsulfonyl)phenoxy)piperidine-1-carbonyl)nicotinamide], below 500 nM.
In the case of `O=C(NC1CCN(Cc2ccc(F)cc2)CC1)c1ccc(C(=O)N2CC[C@H](Oc3ccc(F)cc3)C2)cn1` [Compound 182, (S)-N-(1-(4-fluorobenzyl)piperidin-4-yl)-5-(3-(4-fluorophenoxy)pyrrolidine-1-carbonyl)picolinamide] it was below 500 nM.
The molecule `N#Cc1ccc(CN2CCC(NC(=O)c3ccc(C(=O)N4CCC(S(=O)(=O)c5ccc(F)cc5)CC4)nc3)CC2)cc1` [Compound 471, N-(1-(4-cyanobenzyl)piperidin-4-yl)-6-(4-(4-fluorophenylsulfonyl)piperidine-1-carbonyl)nicotinamide] came in with an EC50 of 1000 to 5000 nM.
Molecule `COc1ccc(C(=O)C2CCN(C(=O)c3ccc(C(=O)N(C)C4CCN(Cc5ccc(OC(F)(F)F)cc5)CC4)cn3)CC2)cc1` [Compound 483, 6-(4-(4-methoxybenzoyl)piperidine-1-carbonyl)-N-methyl-N-(1-(4-(trifluoromethoxy)benzyl)piperidin-4-yl)nicotinamide] registered an EC50 below 500 nM.
On to `N#Cc1ccc(CN2CCC(NC(=O)c3ccc(C(=O)N4CCC(Oc5ccc(F)c(F)c5)CC4)cn3)CC2)cc1` [Compound 158, N-(1-(4-cyanobenzyl)piperidin-4-yl)-5-(4-(3,4-difluorophenoxy)piperidine-1-carbonyl)picolinamide], for which the half-maximal effective concentration (EC50) was below 500 nM.
As for `COc1ccc(OC2CCN(C(=O)c3ccc(C(=O)NC4CCN(Cc5ccc(C#N)cc5)CC4)cn3)CC2)c([N+](=O)[O-])c1` [Compound 378, N-(1-(4-cyanobenzyl)piperidin-4-yl)-6-(4-(4-methoxy-2-nitrophenoxy)piperidine-1-carbonyl)nicotinamide], the EC50 was below 500 nM.
`COc1cccc(CN2CCC(NC(=O)c3ccc(C(=O)N4CCC(S(=O)(=O)c5ccc(F)cc5)CC4)nc3)CC2)c1` [Compound 475, 6-(4-(4-fluorophenylsulfonyl)piperidine-1-carbonyl)-N-(1-(3-methoxybenzyl)piperidin-4-yl)nicotinamide] returned an EC50 of 1000 to 5000 nM.
In the case of `N#Cc1ccc(O[C@H]2CC[C@@H](NC(=O)c3ccc(C(=O)N4CC[C@H](Oc5ccc(F)cc5)C4)cn3)CC2)cc1` [Compound 176, N-((cis)-4-(4-cyanophenoxy)cyclohexyl)-5-((S)-3-(4-fluorophenoxy)pyrrolidine-1-carbonyl)picolinamide] it was 1000 to 5000 nM; in that of `COc1ccc(C(=O)C2CCN(C(=O)c3cnc(C(=O)NC4CCN(Cc5ccc(C#N)cc5)CC4)cn3)CC2)cc1` [Compound 211, N-(1-(4-cyanobenzyl)piperidin-4-yl)-5-(4-(4-methoxybenzoyl)piperidine-1-carbonyl)pyrazine-2-carboxamide], below 500 nM; in that of `COc1ccc(C(=O)C2CCN(C(=O)c3ccc(C(=O)Nc4ccc(S(=O)(=O)c5ccc(F)cc5)nc4)cn3)CC2)cc1` [Compound 467, N-(6-(4-fluorophenylsulfonyl)pyridin-3-yl)-6-(4-(4-methoxybenzoyl)piperidine-1-carbonyl)nicotinamide], 1000 to 5000 nM.
Molecule `N#Cc1ccc(CN2CCC(NC(=O)c3ccc(C(=O)N4CCN(C(=O)C5CCCCC5)CC4)cn3)CC2)cc1` [Compound 89, N-(1-(4-cyanobenzyl)piperidin-4-yl)-5-(4-(cyclohexanecarbonyl)piperazine-1-carbonyl)picolinamide] had an EC50 of 1000 to 5000 nM.
As for `O=C(NC1CCN(Cc2ccccc2)CC1)c1ccc(Nc2cccc(-c3ccccc3)c2)cn1` [Compound 114, N-(1-benzylpiperidin-4-yl)-5-(biphenyl-3-ylamino)picolinamide], the EC50 lay in the range of 1000 to 5000 nM.
Consider `COc1ccc(OC2CCN(C(=O)c3ccc(C(=O)NC4CCN(Cc5ccc(N6CCCC6)cc5)CC4)nc3)CC2)cc1` [Compound 195, 5-(4-(4-methoxyphenoxy)piperidine-1-carbonyl)-N-(1-(4-(pyrrolidin-1-yl)benzyl)piperidin-4-yl)picolinamide], for which the EC50 is below 500 nM.
`COc1ccc(C(=O)C2CCN(C(=O)c3ccc(C(=O)N[C@@H]4CCN(Cc5cc(C)on5)C[C@@H]4F)cn3)CC2)cc1` [Compound 426, N-((3S,4R)-3-fluoro-1-((5-methylisoxazol-3-yl)methyl)piperidin-4-yl)-6-(4-(4-methoxybenzoyl)piperidine-1-carbonyl)nicotinamide] displayed an EC50 below 500 nM.
`O=C(Nc1ccc(C(=O)N2CCN(Cc3ccc(F)cc3)CC2)cn1)c1ccc(Oc2ccc(F)cc2)nc1` [Compound 177, N-(5-(4-(4-fluorobenzyl)piperazine-1-carbonyl)pyridin-2-yl)-6-(4-fluorophenoxy) nicotinamide] yielded a concentration for a half-maximal effect (EC50) of 1000 to 5000 nM.
For the molecule `N#Cc1ccc(OC2CCN(C(=O)c3ccc(C(=O)N[C@H]4CC[C@@H](Oc5ccc(F)cc5)CC4)nc3)CC2)cc1` [Compound 303, 5-(4-(4-cyanophenoxy)piperidine-1-carbonyl)-N-((cis)-4-(4-fluorophenoxy)cyclohexyl)picolinamide], the EC50 was below 500 nM.
Then `O=C(NC1CCN(C(=O)C2CCCCC2)CC1)c1ccc(C(=O)N2CCN(Cc3ccc(F)cc3)CC2)cn1` [Compound 7, N-(1-(cyclohexanecarbonyl)piperidin-4-yl)-5-(4-(4-fluorobenzyl)piperazine-1-carbonyl)picolinamide], with below 500 nM; and `CS(=O)(=O)c1ccc(OC2CCN(C(=O)c3ccc(C(=O)Nc4ccc(Oc5ccc(F)cc5)nc4)cn3)CC2)cc1` [Compound 235, N-(6-(4-fluorophenoxy)pyridin-3-yl)-6-(4-(4-(methylsulfonyl)phenoxy)piperidine-1-carbonyl)nicotinamide], with below 500 nM; and `COc1ccc(OC2CCN(C(=O)c3ccc(C(=O)N[C@H]4CC[C@@H](Oc5ccc(OC)cc5)CC4)nc3)CC2)cc1` [Compound 186, N-((cis)-4-(4-methoxyphenoxy)cyclohexyl)-5-(4-(4-methoxyphenoxy)piperidine-1-carbonyl)picolinamide], with below 500 nM.
Molecule `O=C(Nc1ccc(Oc2ccc(F)cc2)nc1)c1cnc(C(=O)N2CCC(C(=O)c3ccc(F)cc3F)CC2)cn1` [Compound 206, 5-(4-(2,4-difluorobenzoyl)piperidine-1-carbonyl)-N-(6-(4-fluorophenoxy)pyridin-3-yl)pyrazine-2-carboxamide] yielded an EC50 below 500 nM.
Then `CS(=O)(=O)c1ccc(C(=O)C2CCN(C(=O)c3ccc(C(=O)NC4CCN(Cc5ccc(C#N)cc5)CC4)nc3)CC2)cc1` [Compound 228, N-(1-(4-cyanobenzyl)piperidin-4-yl)-5-(4-(4-(methylsulfonyl)benzoyl)piperidine-1-carbonyl)picolinamide], with below 500 nM; and `O=C(Nc1ccc(Oc2ccc(F)cc2)nc1)c1ccc(C(=O)N2CCN(Cc3ccc(F)cc3)CC2)nc1` [Compound 334, 6-(4-(4-fluorobenzyl)piperazine-1-carbonyl)-N-(6-(4-fluorophenoxy)pyridin-3-yl)nicotinamide], with below 500 nM; and `COc1ccc(CN2CCC(NC(=O)c3ccc(C(=O)N4CCC(Oc5ccc(C(=O)C6CC6)cc5)CC4)nc3)CC2)cc1` [Compound 458, 6-(4-(4-(cyclopropanecarbonyl)phenoxy)piperidine-1-carbonyl)-N-(1-(4-methoxybenzyl)piperidin-4-yl)nicotinamide], with below 500 nM.
`N#Cc1ccc(CN2CCC(NC(=O)c3ccc(C(=O)N4CCC(c5ccc(Cl)cc5)CC4)cn3)CC2)cc1` [Compound 134, 5-(4-(4-chlorophenyl)piperidine-1-carbonyl)-N-(1-(4-cyanobenzyl)piperidin-4-yl)picolinamide]: the EC50 was below 500 nM.
`COc1ccc(C(=O)C2CCN(C(=O)c3ccc(C(=O)Nc4ccc(Oc5ccc(C(=O)N(C)C)cc5)nc4)cn3)CC2)cc1` [Compound 480, N-(6-(4-(dimethylcarbamoyl)phenoxy)pyridin-3-yl)-6-(4-(4-methoxybenzoyl)piperidine-1-carbonyl)nicotinamide] gave an EC50 below 500 nM.
